Common to all, as to test: Drug-drug interaction, CYP inhibition in human liver microsomes, cocktail method
What all share (format): in vitro ADME
(In general: Liver microsomes are a subcellular fraction often used to study metabolism.)

The target in one data set is T1, CYP1A2 (Homo sapiens, UniProt P05177).
T1 construct: from tissue; host or cells: human liver microsomes
T1 sequence (P05177 1-516): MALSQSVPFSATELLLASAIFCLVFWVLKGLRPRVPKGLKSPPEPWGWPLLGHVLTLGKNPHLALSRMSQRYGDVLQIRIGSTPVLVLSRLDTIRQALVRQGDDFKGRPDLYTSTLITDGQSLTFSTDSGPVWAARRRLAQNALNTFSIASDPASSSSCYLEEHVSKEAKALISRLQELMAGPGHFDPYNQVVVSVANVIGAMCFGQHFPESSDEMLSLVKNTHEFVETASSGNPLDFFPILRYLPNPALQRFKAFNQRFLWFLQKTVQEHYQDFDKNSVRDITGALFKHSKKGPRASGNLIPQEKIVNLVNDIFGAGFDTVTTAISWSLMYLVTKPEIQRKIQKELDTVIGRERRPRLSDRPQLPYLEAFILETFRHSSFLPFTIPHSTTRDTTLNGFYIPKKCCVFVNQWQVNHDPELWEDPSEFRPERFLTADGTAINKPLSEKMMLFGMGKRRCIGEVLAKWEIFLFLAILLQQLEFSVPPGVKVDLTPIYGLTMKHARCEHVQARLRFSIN
On the procedure:
(§1) The inhibitory effects of compounds on the activity of human liver microsomal cytochrome P450 isoenzymes (CYP1A2, CYP2C9, CYP2C19, CYP2D6, and CYP3A) were evaluated using a cocktail method with specific probe substrates for CYP1A2, CYP2C9, CYP2C19, CYP2D6, and CYP3A.
(§2) Human liver microsomes, probe substrates, positive control inhibitor, and reduced nicotinamide adenine dinucleotide phosphate.
(§3) 20 µL of a substrate solution was added to the corresponding well of a reaction plate, and 20 µL of potassium phosphate buffer was added to the blank wells.
(§4) 2 µL of a test compound working solution and positive control working solution were added to the corresponding wells, and 2 µL of solvent was added to the inhibitor-free wells and blank wells.
(§5) Human liver microsomal working solution was prepared, and 158 µL of human liver microsomal working solution was added to each well of the reaction plate.
(§6) The reaction plate was preheated at 37.0 °C for 10 minutes.
(§7) 20 µL of NADPH cofactor working solution was added to the reaction plate to initiate the reaction.
(§8) The mixture was mixed and incubated in a 37.0 °C water bath for 10 minutes, and 400 µL of stop solution was added to the reaction plate to terminate the reaction.
(§9) The sample plate was placed in a centrifuge, and centrifuged at 4000 rpm for 20 minutes.
(§10) 200 µL of supernatant was taken out, and appropriate 100 µL of pure water was added for dilution. The plate was shaken until the mixture was mixed well.
(§11) The analysis was performed using liquid chromatography-tandem mass spectrometry (LC-MS/MS).
(§12) The IC50 values of the assay samples were calculated by performing a three-parameter or four-parameter nonlinear regression analysis using XL fit software, with the remaining percentage of activity as the ordinate and the assay sample concentration as the abscissa. When the IC50 obtained by fitting with XL fit software was greater than the maximum administration concentration (50.0 µM) or IC50 could not be obtained by fitting, the IC50 value was marked as ">50.0 µM".
(§13) Three-parameter equation: y = (max)/(1 + (((x)/(IC50)))^−hillslope) [formula]
(§14) Four-parameter equation: y = min + (max−min)/(1 + (((x)/(IC50)))^−hillslope) [formula] max: maximum enzyme activity; min: minimum enzyme activity; x: concentration of the assay sample or positive control inhibitor; y: enzyme activity at the corresponding concentration; hillslope: slope; IC50: half-maximal inhibitory concentration; the four-parameter equation was used when the minimum enzyme activity was within ±10%, otherwise the three-parameter equation was used. Drug-drug interaction assay results of the compounds of the present disclosure

The next data set deals with T2, CYP2C19 (Homo sapiens, UniProt P33261).
T2 construct: from tissue; host or cells: human liver microsomes
On the procedure:
as §1, §2, §3, §4, §5, §6, §7, §8, §9, §10, §11, §12, §13, §14

The target of the next data set is T3, CYP2C9 (Homo sapiens, UniProt P11712).
T3 construct: from tissue; host or cells: human liver microsomes
As for the experimental part:
as §1, §2, §3, §4, §5, §6, §7, §8, §9, §10, §11, §12, §13, §14

The target in another data set is T4, CYP2D6 (Homo sapiens, UniProt P10635).
T4 construct: from tissue; host or cells: human liver microsomes
As for the experimental part:
as §1, §2, §3, §4, §5, §6, §7, §8, §9, §10, §11, §12, §13, §14

The target of a further data set is CYP3A4 (Homo sapiens, UniProt P08684). As for the experimental part: as §1, §2, §3, §4, §5, §6, §7, §8, §9, §10, §11, §12, §13, §14
Where [1] appears, read: human liver microsomes, maximum concentration 50.0 µM, read-out: CYP 1A2 (IC50).
The mark [2] stands for this setting: human liver microsomes, maximum concentration 50.0 µM, read-out: CYP 2C19 (IC50).
Where [3] appears, read: human liver microsomes, maximum concentration 50.0 µM, read-out: CYP 2C9 (IC50).
[4] abbreviates: human liver microsomes, maximum concentration 50.0 µM, read-out: CYP 2D6 (IC50).
Where [5] appears, read: human liver microsomes, maximum concentration 50.0 µM, read-out: CYP 3A4 (IC50).

Like-named read-outs stand apart in the source and are kept apart here.

T3 sequence (P11712 whole entry): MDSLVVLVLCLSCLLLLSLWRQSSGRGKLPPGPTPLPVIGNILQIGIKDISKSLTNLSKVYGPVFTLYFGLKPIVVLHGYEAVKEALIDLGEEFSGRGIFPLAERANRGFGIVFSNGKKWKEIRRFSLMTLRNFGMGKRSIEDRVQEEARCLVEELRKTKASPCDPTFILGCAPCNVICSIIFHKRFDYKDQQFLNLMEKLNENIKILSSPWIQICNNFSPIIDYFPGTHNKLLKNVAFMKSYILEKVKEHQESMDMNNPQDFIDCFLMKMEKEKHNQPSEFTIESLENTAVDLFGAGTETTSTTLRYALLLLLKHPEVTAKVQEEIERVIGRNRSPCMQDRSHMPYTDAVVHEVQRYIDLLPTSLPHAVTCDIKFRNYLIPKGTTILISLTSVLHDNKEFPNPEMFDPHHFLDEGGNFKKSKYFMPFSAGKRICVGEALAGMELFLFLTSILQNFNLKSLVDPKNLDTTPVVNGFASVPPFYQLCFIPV
CYP3A4, sequence (P08684 2-503): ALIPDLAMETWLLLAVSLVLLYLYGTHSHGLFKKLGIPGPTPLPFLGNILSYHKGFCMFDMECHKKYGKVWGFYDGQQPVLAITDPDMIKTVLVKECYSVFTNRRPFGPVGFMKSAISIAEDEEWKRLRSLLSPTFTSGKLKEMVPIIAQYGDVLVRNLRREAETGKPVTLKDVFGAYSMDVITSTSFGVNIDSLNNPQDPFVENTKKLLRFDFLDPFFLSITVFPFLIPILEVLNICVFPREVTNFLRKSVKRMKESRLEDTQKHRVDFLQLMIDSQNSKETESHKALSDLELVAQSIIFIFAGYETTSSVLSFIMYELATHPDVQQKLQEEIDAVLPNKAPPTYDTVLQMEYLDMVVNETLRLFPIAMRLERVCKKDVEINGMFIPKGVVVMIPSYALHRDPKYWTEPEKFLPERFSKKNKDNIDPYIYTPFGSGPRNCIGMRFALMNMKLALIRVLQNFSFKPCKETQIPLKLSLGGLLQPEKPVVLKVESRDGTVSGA
T2 sequence (P33261 whole entry): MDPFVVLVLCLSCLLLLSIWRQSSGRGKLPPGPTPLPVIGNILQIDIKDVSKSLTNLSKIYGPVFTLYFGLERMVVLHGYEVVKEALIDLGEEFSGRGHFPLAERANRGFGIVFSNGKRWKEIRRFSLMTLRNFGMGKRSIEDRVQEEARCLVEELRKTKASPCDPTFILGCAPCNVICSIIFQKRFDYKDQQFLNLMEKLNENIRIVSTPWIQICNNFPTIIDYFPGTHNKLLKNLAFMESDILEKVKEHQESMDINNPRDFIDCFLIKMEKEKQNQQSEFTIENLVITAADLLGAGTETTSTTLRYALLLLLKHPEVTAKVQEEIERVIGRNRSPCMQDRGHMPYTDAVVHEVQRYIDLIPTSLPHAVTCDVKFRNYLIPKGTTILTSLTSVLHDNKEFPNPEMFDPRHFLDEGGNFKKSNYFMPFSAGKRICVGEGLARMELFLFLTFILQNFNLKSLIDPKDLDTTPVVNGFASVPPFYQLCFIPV
T4 sequence (P10635 whole entry): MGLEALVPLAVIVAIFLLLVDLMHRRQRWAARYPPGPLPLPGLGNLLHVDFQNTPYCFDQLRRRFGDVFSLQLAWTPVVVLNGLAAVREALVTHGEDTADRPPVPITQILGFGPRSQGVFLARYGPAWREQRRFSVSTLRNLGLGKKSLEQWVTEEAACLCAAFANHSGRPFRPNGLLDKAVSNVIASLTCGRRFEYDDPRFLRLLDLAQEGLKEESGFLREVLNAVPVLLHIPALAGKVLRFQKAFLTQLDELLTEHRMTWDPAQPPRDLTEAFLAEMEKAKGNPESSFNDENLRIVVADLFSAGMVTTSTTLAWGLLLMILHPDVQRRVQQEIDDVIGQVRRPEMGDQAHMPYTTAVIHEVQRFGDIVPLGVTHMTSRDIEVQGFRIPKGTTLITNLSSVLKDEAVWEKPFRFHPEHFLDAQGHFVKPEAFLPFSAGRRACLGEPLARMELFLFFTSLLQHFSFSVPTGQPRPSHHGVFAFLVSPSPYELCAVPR

As for `CC(C)(C)CC(=O)Nc1nc2c(F)cc(C#N)cn2c1-c1ccc(OC(F)(F)F)cc1` [Compound 1], the half-maximal inhibitory concentration (IC50) (commonly the concentration that inhibits the measured activity by half) was > 50 µM at CYP1A2, 31 µM on CYP2C19, 46 µM against CYP2C9 and 42 µM on CYP2D6. At CYP3A4 (human, microsomes), this compound yielded an IC50 at 10 min of 14 µM.
Consider `CC(C)(C)CC(=O)Nc1nc2c(F)cc(C#N)cn2c1C1=CCCC1` [Compound 3], for which the IC50 on CYP1A2 (setting [1]), on CYP2C19 (setting [2]), at CYP2C9 (setting [3]) and on CYP2D6 (setting [4]) was > 50 µM in each case. Also, at CYP3A4 (setting [5]), the IC50 at 10 min was > 50 µM.
Consider `CC(C)(C)CC(=O)Nc1nc2c(F)cc(C#N)cn2c1C12CC(C1)C2` [Compound 5], for which the IC50 at CYP1A2 (setting [1]), on CYP2C19 (setting [2]), on CYP2C9 (setting [3]) and at CYP2D6 (setting [4]) was > 50 µM each time. The concentration for half-maximal inhibition (IC50) at 10 min at CYP3A4 (setting [5]) was > 50 µM.
Turning to `CC(C)(C)CC(=O)Nc1nc2c(C(F)(F)F)cc(C#N)cn2c1C12CC(C1)C2` [Compound 6], the IC50 on CYP1A2 (setting [1]), at CYP2C19 (setting [2]), at CYP2C9 (setting [3]) and at CYP2D6 (setting [4]) was > 50 µM each time. Also, the IC50 at 10 min at CYP3A4 (setting [5]) was > 50 µM.

The values are drawn from patent publication EP4786454A1, “HETEROARYL DERIVATIVE AND USE THEREOF” (priority 2023, dated 2025).
